Tests used:
[1] = tested on: WT and BVES-KO skeletal muscles; experiment: Autophagic flux assay (colchicine), LC3B Western blot in GA muscles; format: in vivo, mouse; conditions: 0.4 mg/kg I.P. daily 7 days
Protocol: Autophagic flux assay. A stock solution of colchicine (4 mg/ml in sterile ddH2O, C9754, Sigma-Aldrich) was prepared and stored at −20° C. until the day of treatment. Immediately prior to administration, the colchicine stock solution was diluted to 0.1 mg/mL in sterile ddH2O water. An equal volume of colchicine (0.4 mg/kg) or vehicle was administered to mice (6 weeks old) daily via I.P. injection for 7 days. Muscle tissues were harvested from treated mice on the day after the final treatment.
Western blot. The cells and tissues were homogenized/lysed with cold RIPA buffer supplemented with protease inhibitors, and the extracted proteins were quantified by DC™ Protein Assay Reagent (Bio-Rad, Hercules, CA). The membrane extraction was performed using the Membrane Protein Extraction Kit (ab65400, Abcam, Waltham, MA) according to the manufacturer's instruction. The extracted protein samples were separated by stain-free SDS-PAGE gels (Bio-Rad, 4-15%) and transferred onto Nitrocellulose Membranes (0.45 μm). The membrane was incubated with the primary antibodies (Table 3) at 4° C. overnight. Secondary HRP-conjugated goat anti-mouse (1:4000) and goat anti-rabbit (1:4000) antibodies were obtained from Cell Signaling Technology (Danvers, MA). […] Western blots were quantified using Image Lab 6.0.1 software (Bio-Rad Laboratories, Hercules, CA) according to the manufacturer's instruction.

BVES-KO mice = experiment: Bortezomib treatment of BVES-KO mice; format: in vivo, mouse; conditions: vs vehicle
Protocol: Histology analysis and immunofluorescence staining. The skeletal muscles were embedded in optimal cutting temperature (OCT) compound, flash frozen using isopentane chilled in liquid nitrogen and kept at −80° C. until used. Cryosections were prepared using a cryostat Leica CM3054. For hematoxylin and eosin (H&E), transversely oriented sections (10 μm) were cut at mid-point, stained and imaged using a Nikon Ti-E inverted fluorescence microscope equipped with a Lumenera Infinity Color CCD camera and a Nikon Super Fluor 20×0.75 NA objective lens (Nikon Inc., Melville, NY) as previously described.
For immunofluorescence staining, frozen tissue sections (10 μm) were fixed with 4% paraformaldehyde for 10 minutes at room temperature. After washing with PBS, the slides were blocked with 5% BSA/PBS for one hour. The slides were incubated with the indicated primary antibodies (Table 3) at 4° C. overnight. After extensive washing with PBS, the slides were incubated with the secondary antibodies (1:400) (Table 3) for one hour at room temperature. The slides were sealed with […] Antifade Mounting Medium with DAPI (Vector Laboratory, Burlingame, CA). The images were taken under a LSM780 microscope (Zeiss, Germany) and assembled to figures using Adobe Photoshop 21.0.2 (Adobe, San Jose, CA). Fiber size and CNF quantification were carried out using Myosight with manual calibration on the entire cross-sections of GA muscles.
Bortezomib Treatment. Bortezomib was purchased from Selleck Chemicals (#S0130, Houston, TX). A stock solution (5 mg/ml) dissolved in the vehicle 2% DMSO, 30% PEG300 and ddH2O were aliquoted and stored at […]. An equal volume of Bortezomib (0.8 mg/kg diluted with the vehicle) or vehicle was I.P. injected once bi-weekly into BVES-KO mice (N=6 per treatment) at 12 weeks age, respectively. After two months of treatment, force measurement and exercise evaluation were performed. Mice were sacrificed after 3-month treatment. QU and GA muscles were processed for histopathology, immunofluorescence and Western blot analyses.
Force measurement. The muscle contractility was measured using an in vivo muscle test system (Aurora Scientific Inc) as previously described. Briefly, mice were anesthetized with 2% (w/v) isoflurane and anesthesia was maintained by 2% isoflurane (w/v) during muscle contractility measurement. Maximum plantarflexion tetanic torque was measured during a train of supramaximal electric stimulations of the tibial nerve (pulse frequency 150 Hz, pulse duration 0.2 ms) using the DMA v5.501 (Aurora Scientific Inc).
Exercise and exhaustion assay. Time and distance to exhaustion was performed as previously described. Briefly, prior to training, the randomized mice were firstly acclimated to the treadmill (LE8710MTS, Harvard Apparatus) for two consecutive days at slow speed (10 cm/s) for 5 min. On the third day, mice were placed on an uphill) (15° treadmill with an initial speed of 10 cm/s, increased every 4 min by 5 cm/s. Mice were considered to be exhausted when the animal's hindlimbs remained on the electric grid for more than 10 s. Time and distance were automatically collected via the software SeDaCOM (Harvard Apparatus).

[2] = tested on: ADCY3/ADCY6 double KO HEK293 cells with stable expression of cAMPr; experiment: cAMPr reporter assay; format: cell-based, human; conditions: 500 μM

SMILES: COc1cc2c(c(OC)c1OC)-c1ccc(OC)c(=O)cc1[C@@H](NC(C)=O)CC2 [colchicine]
- LC3B (Western blot) [1]: significant increase

SMILES: CC(C)C[C@H](NC(=O)[C@H](Cc1ccccc1)NC(=O)c1cnccn1)B(O)O [bortezomib]
- body weight (BVES-KO mice; 0.8 mg/kg I.P. once bi-weekly, 2 months): significantly increased
- fiber size (CSA, GA) (BVES-KO mice; 0.8 mg/kg I.P., 2 months): significantly increased
- muscle contractility (tetanic torque) (BVES-KO mice; 0.8 mg/kg I.P., 2 months): enhanced
- physical performance on treadmill running (time to exhaustion, total running distance) (BVES-KO mice; 0.8 mg/kg I.P., 2 months): improved
- mass of quadriceps and gastrocnemius muscles (normalized to body weight) (BVES-KO mice; 0.8 mg/kg I.P.): significantly increased
- muscle pathology (H&E staining, GA) (BVES-KO mice; 0.8 mg/kg I.P.): remarkably improved
- percentage of CNFs (GA) (BVES-KO mice; 0.8 mg/kg I.P.): reduced

SMILES: CC(C)Cn1c(=O)n(C)c(=O)c2[nH]cnc21 [IBMX, 3-isobutyl-1-methylxanthine]
- cAMP (cAMPr fluorescence) change ([2]; ADCY9-transfected cells): gradual increase
- cAMP (cAMPr fluorescence) change ([2]; cells co-transfected with BVES and ADCY9): substantially reduced cAMP elevation
